# Reference: patent publication US11701372B2, “Inhalation formulations of 1'-cyano substituted carba-nucleoside analogs” (priority 2020, dated 2023)
# Read-outs that look alike come from different tables or passages of the source.
# What was measured:
# in vivo = experiment: in vivo; set-up: species or system African Green Monkeys; details: monkey, iv, 10 mg/kg
# [1] = assay type: physicochemical; details: for % assay/degs / Total degs / pH: T = 0
# Method: For each condition, samples were staged at ambient and refrigerated conditions. Samples were analyzed for % assay/degs, appearance, reconstitution time, pH, and compared to T=0. The structures of the key impurities/metabolites are shown below.
compound,measurement,setting,value
"CCC(CC)COC(=O)[C@H](C)N[P@](=O)(OC[C@H]1O[C@@](C#N)(c2ccc3c(N)ncnn23)[C@H](O)[C@@H]1O)Oc1ccccc1 [Formula Ia, (S)-2-ethylbutyl 2-(((S)-(((2R,3S,4R,5R)-5-(4-aminopyrrolo[2,1-f][1,2,4]triazin-7-yl)-5-cyano-3,4-dihydroxytetrahydrofuran-2-yl)methoxy)(phenoxy)phosphoryl)amino)propanoate]",AUC(0-t),in vivo,7.26 µM·h
same,"% assay/degs, difference from T = 0","[1]; pH 1.8, 2-8° C., 2 h",0.0%
same,"Total degs, difference from T = 0","[1]; pH 1.8, 2-8° C., 2 h",0.0%
same,"pH, difference from T = 0","[1]; pH 1.8, 2-8° C., 2 h",0.0
same,"% assay/degs, difference from T = 0","[1]; pH 1.8, 2-8° C., 3 h",−0.2%
same,"Total degs, difference from T = 0","[1]; pH 1.8, 2-8° C., 3 h",0.0%
same,"pH, difference from T = 0","[1]; pH 1.8, 2-8° C., 3 h",0.0
same,"% assay/degs, difference from T = 0","[1]; pH 1.8, 2-8° C., 8 h",−0.2%
same,"Total degs, difference from T = 0","[1]; pH 1.8, 2-8° C., 8 h",0.1%
same,"pH, difference from T = 0","[1]; pH 1.8, 2-8° C., 8 h",0.0
same,"% assay/degs, difference from T = 0","[1]; pH 1.8, 2-8° C., 24 h",−0.5%
same,"Total degs, difference from T = 0","[1]; pH 1.8, 2-8° C., 24 h",0.2%
same,"pH, difference from T = 0","[1]; pH 1.8, 2-8° C., 24 h",0.0
same,"% assay/degs, difference from T = 0","[1]; pH 1.8, 2-8° C., 48 h",−0.2%
same,"Total degs, difference from T = 0","[1]; pH 1.8, 2-8° C., 48 h",0.4%
same,"pH, difference from T = 0","[1]; pH 1.8, 2-8° C., 48 h",0.0
same,"% assay/degs, difference from T = 0","[1]; pH 1.8, Ambient, 1 h",−0.3%
same,"Total degs, difference from T = 0","[1]; pH 1.8, Ambient, 1 h",0.0%
same,"pH, difference from T = 0","[1]; pH 1.8, Ambient, 1 h",0.0
same,"% assay/degs, difference from T = 0","[1]; pH 1.8, Ambient, 2 h",−0.1%
same,"Total degs, difference from T = 0","[1]; pH 1.8, Ambient, 2 h",0.1%
same,"pH, difference from T = 0","[1]; pH 1.8, Ambient, 2 h",0.0
same,"% assay/degs, difference from T = 0","[1]; pH 1.8, Ambient, 3 h",−0.3%
same,"Total degs, difference from T = 0","[1]; pH 1.8, Ambient, 3 h",0.1%
same,"pH, difference from T = 0","[1]; pH 1.8, Ambient, 3 h",0.0
same,"% assay/degs, difference from T = 0","[1]; pH 1.8, Ambient, 8 h",−0.4%
same,"Total degs, difference from T = 0","[1]; pH 1.8, Ambient, 8 h",0.4%
same,"pH, difference from T = 0","[1]; pH 1.8, Ambient, 8 h",0.0
same,"% assay/degs, difference from T = 0","[1]; pH 1.8, Ambient, 24 h",−1.3%
same,"Total degs, difference from T = 0","[1]; pH 1.8, Ambient, 24 h",1.2%
same,"pH, difference from T = 0","[1]; pH 1.8, Ambient, 24 h",0.0
same,"% assay/degs, difference from T = 0","[1]; pH 1.8, Ambient, 48 h",−3.5%
same,"Total degs, difference from T = 0","[1]; pH 1.8, Ambient, 48 h",2.4%
same,"pH, difference from T = 0","[1]; pH 1.8, Ambient, 48 h",0.0
same,% assay/degs,[1]; pH 1.8,99.4%
same,Total degs,[1]; pH 1.8,0.2%
same,pH,[1]; pH 1.8,1.8
same,"% assay/degs, difference from T = 0","[1]; pH 2.0, 2-8° C., 2 h",0.6%
same,"Total degs, difference from T = 0","[1]; pH 2.0, 2-8° C., 2 h",0.0%
same,"pH, difference from T = 0","[1]; pH 2.0, 2-8° C., 2 h",0.0
same,"% assay/degs, difference from T = 0","[1]; pH 2.0, 2-8° C., 3 h",0.2%
same,"Total degs, difference from T = 0","[1]; pH 2.0, 2-8° C., 3 h",0.0%
same,"pH, difference from T = 0","[1]; pH 2.0, 2-8° C., 3 h",0.0
same,"% assay/degs, difference from T = 0","[1]; pH 2.0, 2-8° C., 8 h",−0.1%
same,"Total degs, difference from T = 0","[1]; pH 2.0, 2-8° C., 8 h",0.1%
same,"pH, difference from T = 0","[1]; pH 2.0, 2-8° C., 8 h",0.0
same,"% assay/degs, difference from T = 0","[1]; pH 2.0, 2-8° C., 24 h",0.2%
same,"Total degs, difference from T = 0","[1]; pH 2.0, 2-8° C., 24 h",0.1%
same,"pH, difference from T = 0","[1]; pH 2.0, 2-8° C., 24 h",0.0
same,"% assay/degs, difference from T = 0","[1]; pH 2.0, 2-8° C., 48 h",−0.5%
same,"Total degs, difference from T = 0","[1]; pH 2.0, 2-8° C., 48 h",0.3%
same,"pH, difference from T = 0","[1]; pH 2.0, 2-8° C., 48 h",0.0
same,"% assay/degs, difference from T = 0","[1]; pH 2.0, Ambient, 1 h",0.1%
same,"Total degs, difference from T = 0","[1]; pH 2.0, Ambient, 1 h",0.0%
same,"pH, difference from T = 0","[1]; pH 2.0, Ambient, 1 h",0.0
same,"% assay/degs, difference from T = 0","[1]; pH 2.0, Ambient, 2 h",−0.2%
same,"Total degs, difference from T = 0","[1]; pH 2.0, Ambient, 2 h",0.1%
same,"pH, difference from T = 0","[1]; pH 2.0, Ambient, 2 h",0.0
same,"% assay/degs, difference from T = 0","[1]; pH 2.0, Ambient, 3 h",0.3%
same,"Total degs, difference from T = 0","[1]; pH 2.0, Ambient, 3 h",0.1%
same,"pH, difference from T = 0","[1]; pH 2.0, Ambient, 3 h",0.0
same,"% assay/degs, difference from T = 0","[1]; pH 2.0, Ambient, 8 h",−0.2%
same,"Total degs, difference from T = 0","[1]; pH 2.0, Ambient, 8 h",0.2%
same,"pH, difference from T = 0","[1]; pH 2.0, Ambient, 8 h",0.0
same,"% assay/degs, difference from T = 0","[1]; pH 2.0, Ambient, 24 h",−0.6%
same,"Total degs, difference from T = 0","[1]; pH 2.0, Ambient, 24 h",0.8%
same,"pH, difference from T = 0","[1]; pH 2.0, Ambient, 24 h",0.0
same,"% assay/degs, difference from T = 0","[1]; pH 2.0, Ambient, 48 h",−1.8%
same,"Total degs, difference from T = 0","[1]; pH 2.0, Ambient, 48 h",1.6%
same,"pH, difference from T = 0","[1]; pH 2.0, Ambient, 48 h",0.0
same,% assay/degs,[1]; pH 2.0,99.2%
same,Total degs,[1]; pH 2.0,0.2%
same,pH,[1]; pH 2.0,2.0
same,"% assay/degs, difference from T = 0","[1]; pH 3.5, 2-8° C., 2 h",0.6%
same,"Total degs, difference from T = 0","[1]; pH 3.5, 2-8° C., 2 h",0.0%
same,"pH, difference from T = 0","[1]; pH 3.5, 2-8° C., 2 h",0.0
same,"% assay/degs, difference from T = 0","[1]; pH 3.5, 2-8° C., 8 h",0.3%
same,"Total degs, difference from T = 0","[1]; pH 3.5, 2-8° C., 8 h",0.0%
same,"pH, difference from T = 0","[1]; pH 3.5, 2-8° C., 8 h",0.0
same,"% assay/degs, difference from T = 0","[1]; pH 3.5, 2-8° C., 24 h",0.7%
same,"Total degs, difference from T = 0","[1]; pH 3.5, 2-8° C., 24 h",0.0%
same,"pH, difference from T = 0","[1]; pH 3.5, 2-8° C., 24 h",−0.1
same,"% assay/degs, difference from T = 0","[1]; pH 3.5, 2-8° C., 48 h",0.5%
same,"Total degs, difference from T = 0","[1]; pH 3.5, 2-8° C., 48 h",0.0%
same,"pH, difference from T = 0","[1]; pH 3.5, 2-8° C., 48 h",0.0
same,"% assay/degs, difference from T = 0","[1]; pH 3.5, 2-8° C., 72 h",0.7%
same,"Total degs, difference from T = 0","[1]; pH 3.5, 2-8° C., 72 h",0.0%
same,"pH, difference from T = 0","[1]; pH 3.5, 2-8° C., 72 h",−0.1
same,"% assay/degs, difference from T = 0","[1]; pH 3.5, 2-8° C., 96 h",0.2%
same,"Total degs, difference from T = 0","[1]; pH 3.5, 2-8° C., 96 h",0.0%
same,"pH, difference from T = 0","[1]; pH 3.5, 2-8° C., 96 h",0.0
same,"% assay/degs, difference from T = 0","[1]; pH 3.5, 2-8° C., 168 h",0.6%
same,"Total degs, difference from T = 0","[1]; pH 3.5, 2-8° C., 168 h",0.0%
same,"pH, difference from T = 0","[1]; pH 3.5, 2-8° C., 168 h",0.0
same,"% assay/degs, difference from T = 0","[1]; pH 3.5, Ambient, 2 h",0.6%
